Laboratory results taken from paper PMC7606486, “CFAP45 deficiency causes situs abnormalities and asthenospermia by disrupting an axonemal adenine nucleotide homeostasis module” (Nature Communications, 2020).

How the values were obtained:
CFAP45 = biological target: T1, CFAP45 (Homo sapiens, UniProt Q9UL16); assay: AMP-agarose pull-down, immunoblot or silver stain; assay type: binding; settings: AMP immobilised on agarose, best with the 6AH-AMP resin; sperm eluates released with 100 mM free 5'-AMP; 500 mM NaCl lysis buffer, pH 8.0, 4 °C; labelled compound
T1 construct: full length, 551 aa, 66 kDa

AK8 = biological target: T2, AK8 (Homo sapiens, UniProt Q96MA6); assay: AMP-agarose pull-down, anti-FLAG immunoblot; assay type: binding; settings: AMP immobilised on agarose, preferentially the αAH-AMP resin; 500 mM NaCl lysis buffer; labelled compound
T2 sequence (Q96MA6 1-479): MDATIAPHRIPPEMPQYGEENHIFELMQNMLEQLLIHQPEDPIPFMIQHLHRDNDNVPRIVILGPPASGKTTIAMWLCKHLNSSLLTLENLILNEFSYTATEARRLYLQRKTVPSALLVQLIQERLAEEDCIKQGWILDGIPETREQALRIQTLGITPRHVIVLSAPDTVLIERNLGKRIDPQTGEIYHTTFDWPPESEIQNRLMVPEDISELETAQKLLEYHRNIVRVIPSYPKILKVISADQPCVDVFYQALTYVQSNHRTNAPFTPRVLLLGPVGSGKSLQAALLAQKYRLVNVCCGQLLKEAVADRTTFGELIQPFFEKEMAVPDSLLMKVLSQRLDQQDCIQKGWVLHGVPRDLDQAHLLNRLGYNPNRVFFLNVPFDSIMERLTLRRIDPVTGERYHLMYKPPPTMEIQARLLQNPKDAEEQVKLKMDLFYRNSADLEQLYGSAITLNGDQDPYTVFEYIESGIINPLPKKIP

T1 sequence (Q9UL16 whole entry): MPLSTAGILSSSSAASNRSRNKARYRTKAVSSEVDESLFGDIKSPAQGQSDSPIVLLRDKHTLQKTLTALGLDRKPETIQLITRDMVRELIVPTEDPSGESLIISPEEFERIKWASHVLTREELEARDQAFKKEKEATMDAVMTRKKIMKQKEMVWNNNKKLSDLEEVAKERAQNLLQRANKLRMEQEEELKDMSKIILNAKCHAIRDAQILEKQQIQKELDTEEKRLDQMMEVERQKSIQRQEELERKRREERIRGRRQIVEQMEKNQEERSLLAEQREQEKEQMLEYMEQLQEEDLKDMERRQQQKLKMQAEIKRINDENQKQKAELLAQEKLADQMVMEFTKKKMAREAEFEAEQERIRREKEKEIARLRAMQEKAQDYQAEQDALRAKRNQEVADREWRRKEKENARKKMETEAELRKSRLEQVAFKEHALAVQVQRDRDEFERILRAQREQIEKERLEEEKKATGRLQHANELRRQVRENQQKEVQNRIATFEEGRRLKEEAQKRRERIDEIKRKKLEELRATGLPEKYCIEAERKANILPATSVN

Nc1ncnc2c1ncn2[C@@H]1O[C@H](COP(=O)(O)O)[C@@H](O)[C@H]1O [AMP]
AMP-agarose pull-down, immunoblot or silver stain (CFAP45): CFAP45 immunoprecipitates recovered from human sperm (see “Methods”) showed affinity to AMP, especially 6AH-AMP-agarose | AMP-agarose pull-down, anti-FLAG immunoblot (AK8): NTAP-AK8 shows affinity to αAH-AMP-agarose following elution and IB with monoclonal anti-FLAG antibody
